This note sets out measurements from PubChem BioAssay AID179 (DTP/NCI, 2004).

In the assay the test system is CEM cells HIV-1 protection, formazan growth assay. Description: NCI AIDS Antiviral Assay. The settings on record: for IC50: measured here: growth of uninfected CEM cells. An outline of the steps:
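Protection of CEM cells against HIV-1 measured as cell growth via soluble formazan read-out, with five concentrations tested on both infected and uninfected cells; failure to protect may reflect toxicity.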

“And” between values parts separate entries of the source, which are not always exact repeats. Equal values may be shown once. The source made the active and inactive calls.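 The calls were made as follows: active = compounds giving half or more protection of infected cells from virus-caused growth loss, again on retest; inactive = the rest.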 Where only a bound is given, the exact number is not on record here.

The EC50 is the midpoint of the concentration-response curve. The IC50 is the midpoint of a concentration-inhibition curve. The low end stands for greater potency, the high end for weaker potency. Take `CCCCCCCCCCCCSCC12c3ccccc3C(c3ccccc31)C(C(=O)O)C2C(=O)O` (stereo unspecified): the EC50 was over 200 µM and the IC50 was 22.4 µM. As for `COc1ccccc1C1CC(c2ccccc2)=Nc2ccccc2S1` (stereo unspecified), the EC50 was over 42.7 µM and the IC50 came to 8.13 µM.

Consider `CCOC(=O)c1ccc(CSc2ccc(OC)cc2)c([N+](=O)[O-])c1`, for which the EC50 was over 102 µM and the IC50 was found to be 19.1 µM. The corresponding values for `OCC1NC(CC2OC(CO)C(O)C(O)C2O)C(O)C(O)C1O` (stereo unspecified) are over 200 µM and over 200 µM. As to `COc1cc(C)c(Cc2cnc(N)nc2N)cc1OC`, the EC50 is over 200 µM and the IC50 is over 200 µM.

Turning to `S=C1CC(c2ccc(Cl)cc2)Sc2ccccc2N1` (stereo unspecified), the EC50 was over 200 µM and the IC50 amounted to 138 µM. `O=C1OC2C=CC1C1(CCOC1=O)C2` (stereo unspecified): the EC50 is over 200 µM and the IC50 was over 200 µM. As for `CC(=O)OCC1OC(N2C(=O)NC(=O)C3C=C4CCCCC4=CC32)C(OC(C)=O)C1OC(C)=O` (stereo unspecified), the EC50 is over 200 µM and the IC50 was over 200 µM. Turning to `CC(=O)[O-].[Zn].c1ccc(/C(=N\Nc2ccccn2)c2ccccn2)cc1`, the outcome was inactive.

On to `OCCNC(=S)SSC(=S)NCCO`, for which the result was inactive. For the compound `COc1cc(OC)c(C2c3cc4c(cc3OC(N3CCCC3)C2C)OCO4)c(OC)c1` (stereo unspecified), the EC50 is over 200 µM and the IC50 was determined as 4.37 µM. Take `COc1ccc(-n2c(=O)n(C)c(=O)n2-c2ccc(OC)cc2)cc1`: the EC50 was over 200 µM and the IC50 was over 200 µM.

On to `O=C(NC1CCCCC1)/C(=C\c1ccc2c(c1)OCO2)NC(=O)c1ccccc1`, for which the EC50 was over 200 µM and the IC50 is over 200 µM.

As for `CN(C)c1ccc(/C=C/C=C\C2=CC(=C\C=C/C=C3C=CC(=[N+](C)C)C=C3)/Sc3ccccc32)cc1`, the EC50 was over 1.78 µM and the IC50 is over 1.78 µM. Take `CC(=O)OCC1OC(OCC2OC(N3C(=S)N[C@H]([C@@H](O)[C@H](O)[C@H](O)CO)[C@H]3O)C(OC(C)=O)C(OC(C)=O)C2OC(C)=O)C(OC(C)=O)C(OC(C)=O)C1OC(C)=O` (stereo partly specified): the EC50 was over 100 µM and the IC50 was over 100 µM. In the case of `Nc1c(O)c(S(=O)(=O)O)c(O)c2c1C(=O)c1ccccc1C2=O`, the EC50 is 200 µM and the IC50 was 234 µM.

In the case of `COc1ccc(CCN(C)C(=O)CC(C#N)(c2ccccc2)c2ccc(OC)c(OC)c2)cc1OC` (stereo unspecified), the EC50 was over 200 µM and the IC50 worked out at 95.5 µM.

As to `O=C(O)/C=C/c1c2ccc(=O)c(O)c-2oc2c(O)c(O)ccc12`, the EC50 was 6.03 µM and 24 µM; the IC50 was 151 µM and 162 µM. Turning to `CCC[CH2][Sn]([CH2]CCC)=[N]S(=O)(=O)c1ccc(Cl)c(C)c1`, the EC50 was over 0.2 µM and the IC50 was determined as 0.0851 µM. In the case of `CC1=N/C(=C\c2cccc(Cl)c2)C(=O)O1`, the EC50 was over 85.1 µM and the IC50 was over 85.1 µM. On to `CCCCCCC(c1ccc(O)c(C(=O)O)c1)c1ccc(O)c(C(=O)O)c1`, for which the EC50 is over 1000 µM and the IC50 amounted to 166 µM. Consider `CNN1C(=O)c2c(N)c(C#N)c(-c3ccccc3)c(-c3ccccc3)c2C1=O`, for which the EC50 was 16.2 µM and the IC50 is 174 µM.

`Cn1c2ccccc2c2nnc(NCCCO)nc21`: the EC50 was over 200 µM and the IC50 came to 148 µM. For `CC1=C(C(=O)Nc2ccc([N+](=O)[O-])cc2)C(c2ccccc2O)C(C(=O)Nc2ccc([N+](=O)[O-])cc2)=C(C)N1` the same measures were over 49 µM and 30.9 µM. On to `CCOc1cccc(C=Nc2ccccc2SSc2ccccc2N=Cc2cccc(OCC)c2O)c1O`, for which the EC50 is over 100 µM and the IC50 was determined as 5.13 µM. For `CSc1cc(Cl)c(C)cc1S(=O)(=O)n1cc[nH]c1=O` the same measures were over 200 µM and over 200 µM. The corresponding values for `O=C(O)/C=C/C(=O)Nc1ccccc1` are over 200 µM and over 200 µM. Turning to `CCCCCCCCCCNC(=S)OCCCC`, the result was inactive. The same measure, in the same setting: with `Cc1ccc(N2CC(=O)N3CCCC(c4ccccc4)N3C(=O)C2)cc1` (stereo unspecified) the entry was “inactive”. As for `CC(C)(C)OC(=O)Cn1ncn(NC(=O)Cc2ccccc2)c1=S`, the EC50 is over 200 µM and the half-maximal inhibitory concentration (IC50) is over 200 µM. As to `COc1ccc(C2(Br)C(=O)NN=C2C)cc1` (stereo unspecified), the EC50 was over 200 µM and the IC50 was 10.7 µM. On to `CN(C)CCC=C1c2ccccc2CCc2ccccc21`, for which the EC50 was over 200 µM and the IC50 was 34.7 µM. The corresponding values for `Cn1c(=S)[nH]n(CCOc2ccccc2)c1=S` are over 200 µM and over 200 µM.

With `Clc1ccc2c(c1)[nH]c1c2nc2sccn21`, the outcome was inactive.

On to `CCOC(=O)C1=NN(c2ccccc2)C(=O)/C1=C\N1C(=S)NC(=O)/C1=C\c1cccc([N+](=O)[O-])c1`, for which the EC50 is over 200 µM and the IC50 stood at 89.1 µM. For `C[C@]12CC[C@H](OC(=O)CCC(=O)O)C[C@H]1CC[C@@H]1[C@@H]2CC[C@]2(C)C(c3ccc(=O)oc3)CC[C@]12O` (stereo partly specified) the same measures were over 0.2 µM and 0.0162 µM. For `C=C1CN2CCc3c([nH]c4ccccc34)C2CC1CC(=O)N(C)C` (stereo unspecified), the EC50 is over 562 µM and the IC50 stood at 468 µM. For the compound `NC(=S)N1N=C2c3ccccc3CC[C@@H]2[C@@H]1c1ccccc1`, the EC50 was over 34.7 µM and the half-inhibitory concentration (IC50) is 6.03 µM. The corresponding values for `COc1ccc(N=NC(=O)NC(CC(C)C)C(N)=O)cc1` (stereo unspecified) are over 200 µM and 3.39 µM. The corresponding values for `Cc1nn(-c2ccccc2)c(CC(Cc2c([N+](=O)[O-])c(C)nn2-c2ccccc2)c2ccccc2)c1[N+](=O)[O-]` are over 10 µM and over 10 µM. For `CN(c1ccc(Cl)cc1)S(=O)(=O)c1ccccc1` the same measures were over 200 µM and 50.1 µM. With `C[N+]1=C(c2ccc[n+](C)c2/C=N/O)OCC1(C)C`, the EC50 is over 501 µM and the IC50 was over 501 µM. Consider `[N-]=[N+]=Nc1cccc(-c2n[nH]c(Cl)cc2=O)c1`, for which the EC50 is over 200 µM and the IC50 is over 200 µM. For `N#CC1=C(c2ccccc2)OC2(N)OC(c3ccccc3)=C(C#N)C12C#N` (stereo unspecified), the result was inactive. For `C[N+](C)(C)CC1CCCCCCCCCCC1=O` (stereo unspecified), the EC50 was 60.3 µM and the IC50 amounted to 148 µM.

With `CC12CCC(C)(O1)C1C(=O)N(c3nccs3)C(=O)C12` (stereo unspecified), the EC50 was over 891 µM and the IC50 was over 891 µM. Turning to `CN=C(c1ccc(NC(=O)c2ccc(C(=O)Nc3ccc(C(=NC)N4CCOCC4)cc3)c(Cl)c2)cc1)N1CCOCC1`, the EC50 was over 200 µM and the IC50 was over 200 µM. Take `CN(C)CCNc1ccc2c(=O)n(CCN(C)C)c(=O)n3c4ccc(N)cc4c(=O)c1c23`: the EC50 was over 200 µM and the IC50 amounted to 0.0631 µM. The corresponding values for `CCOC(=O)n1c(=O)nc2c3c(ncn21)Oc1c(c(-c2ccccc2)nn1-c1ccccc1)C3c1ccc(Cl)cc1` (stereo unspecified) are over 200 µM and 2.29 µM. For the compound `O=C1CC(c2c[nH]c3ccccc23)C(=O)N1` (stereo unspecified), the outcome was inactive. On the same count and under the same terms, the same measure for `Cc1ccc(S(=O)(=O)/C(C#N)=C/NC(=S)Nc2ccc(C)cc2C)cc1`: “inactive”.

On to `COc1cc(C)cc2c1C(=O)C(Br)=CC2=O`, for which the EC50 is over 200 µM and the IC50 is 1.95 µM.
